# Measurements as given in US20240299349A1, “TREATMENT OR PREVENTION OF LEUKAEMIA” (VESTLANDETS INNOVASJONSSELSKAP AS, priority 2019, published 2024).
# Columns and labels:
# [1] = system: HL60 cell line; experiment: WST-1 cell viability assay, 24 hours treatment, HL60; assay type: cell-based, human; conditions: HL60, 24 hours; for cytotoxicity / %-viability: 0.001-100 μM, WST-1; for cell survival dose/response curve in the mitochondria metabolism assay (WST-1): FIG. 1
# Description: (§1) The cell lines HL60 and MOLM-13 were treated with the various compounds for 24 hours. The cell viability assay WST-1 was used to determine the cytotoxic effect and to generate the dose-response curves and IC50 values.
# (§2) The two human cell lines HL60 and MOLM-13 reflect the aggressive blood cancer acute myeloid leukaemia (AML). These cell lines (obtained from the American Type Culture Collection, ATCC) were cultured in RPMI 1640, 2 mM L-Glutamine, 50 UmL^−1 penicillin/streptomycin (Sigma Aldrich) and 10% fetal bovine serum (Biowest) and incubated in humidified atmosphere at a temperature of 37° C. under 5% CO2. The cells (2×10^5 cells×mL^−1) were treated with various concentrations (0.001 μM→100 μM) of the compounds for a period of 24 hours. Metabolic cell activity (i.e. cell viability) was measured using the WST-1 cell proliferation agent (Roche) and read on a […] plate reader (Infinite 200 Pro, Tecan). Selected cell samples were analysed after nuclear staining with Hoechst to determine apoptotic nuclear fragmentation.
# [2] = system: MOLM-13 cell line; experiment: WST-1 cell viability assay, 24 hours treatment, MOLM-13; assay type: cell-based, human; conditions: MOLM-13, 24 hours; for cytotoxicity / %-viability: 0.001-100 μM, WST-1; for cell survival dose/response curve in the mitochondria metabolism assay (WST-1): FIG. 1
# Description: as §1, §2
SMILES,cytotoxicity / %-viability [1],cell survival dose/response curve in the mitochondria metabolism assay (WST-1) [1],cytotoxicity / %-viability [2],cell survival dose/response curve in the mitochondria metabolism assay (WST-1) [2],melting point [°C]
"COc1c(C)c(OC)c([N+](=O)[O-])c(-c2ccccc2)c1O [Compound 7, 3,5-dimethoxy-4-methyl-6-nitrobiphenyl-2-ol]",minor decrease in %-viability,more limited dose/response curves,minor decrease in %-viability,more limited dose/response curves,102.7
"COc1cccc(-c2c(O)c(OC)c(C)c(OC)c2[N+](=O)[O-])c1 [Compound 7a, 3,3′,5-trimethoxy-4-methyl-6-nitro-[1,1′-biphenyl]-2-ol]",–,rapid decrease in cell survival,–,rapid decrease in cell survival,–
"COc1c(C)c(OC)c(O)c(-c2ccccc2)c1N [Compound 8, 6-amino-3,5-dimethoxy-4-methyl-[1,1′-biphenyl]-2-ol]",substantial drop in %-viability,rapid decrease in cell survival,substantial drop in %-viability,rapid decrease in cell survival,–
"COc1cccc(-c2c(N)c(OC)c(C)c(OC)c2O)c1 [Compound 8a, 6-amino-3,3′,5-trimethoxy-4-methyl-[1,1′-biphenyl]-2-ol]",–,rapid decrease in cell survival,–,rapid decrease in cell survival,–
"COc1c(C)c(OC)c(OC(C)=O)c(-c2ccccc2)c1NC(C)=O [Compound 9, 6-acetamido-3,5-dimethoxy-4-methyl-(1,1′-biphenyl)-2-yl acetate]",weaker cytotoxicity,more limited dose/response curves,weaker cytotoxicity,more limited dose/response curves,–
"COc1cccc(-c2c(NC(C)=O)c(OC)c(C)c(OC)c2OC(C)=O)c1 [Compound 9a, 6-acetamido-3,3′,5-trimethoxy-4-methyl-(1,1′-biphenyl)-2-yl acetate]",–,more limited dose/response curves,–,more limited dose/response curves,–
"COc1c(C)c(OC)c2c(c1OC(C)=O)c1ccccc1n2C(C)=O [Compound 10, 9-acetyl-1,3-dimethoxy-2-methyl-9H-carbazol-4-yl acetate]",did not show any influence on the cytotoxicity,rapid decrease in cell survival,did not show any influence on the cytotoxicity,rapid decrease in cell survival,–
"COc1c(C)c(OC)c2[nH]c3ccccc3c2c1O [Compound 11, 1,3-dimethoxy-2-methyl-9H-carbazol-4-ol]",major cytotoxicity,rapid decrease in cell survival,major cytotoxicity,rapid decrease in cell survival,–
"COC1=C(C)C(=O)c2[nH]c3ccccc3c2C1=O [Compound 12, 3-methoxy-2-methyl-1-carbazole-1,4 (9H)-dione]",–,more limited dose/response curves,–,more limited dose/response curves,–
"COC1=C(C)C(C)(O)c2[nH]c3ccccc3c2C1=O (stereo not drawn) [Compound 13, 1-hydroxy-3-methoxy-1,2-dimethyl-1,9-dihydro-4H-carbazol-4-one, reference compound]",not to exhibit cytotoxicity,more limited dose/response curves,not to exhibit cytotoxicity,more limited dose/response curves,–
